Results on three substances are retold here after US7101701B2, “Method to reduce contamination when culturing mycobacteria” (The Trustees of the University of Pennsylvania, priority 2004, dated 2006).

One series deals with chymotrypsin. As to conditions: Pep5 variant; cited from earlier work.
Another series deals with at least some strains. Particulars: when used with at least some strains; cited from earlier work.
The next series deals with MAP ATCC# 700535. Briefly: MGIT 960 liquid culture of MAP isolate dilutions, time to positive. The format is cell-based, Mycobacterium avium subsp. paratuberculosis. Particulars: for TTP (days): 600 ul EY. The protocol:
(§1) Middlebrook 7H9 broth was prepared by suspending 4.7 grams Middlebrook 7H9 dehydrated base (BD Diagnostics, Sparks, Md.) in 900 ml of double distilled water. The solution was autoclaved for 20 minutes at 121° C., and stored in a refrigerator when not in use. A 50% egg yolk suspension was stored in a refrigerator. Nisin was prepared in 1–2 M hydrochloride acid (HCl) at a concentration of 100 mg/ml. ANV cocktail (5 mg/ml) was prepared from the individual antibiotics and stored frozen.
Dilutions of MAP ATCC# 700535 were prepared as follows. A working stock vial, at 10^−2, stored at −70° C. freezer, was thawed in a 37° C. incubator. Using individually-wrapped, sterile glass pipettes, a serial dilution series was made in sterile 15 ml conical tubes. One (1) ml of MAP at 10^−2 was diluted into 9 ml of 7H9 medium and mixed well to yield a 10^−3 solution. One ml of this solution was diluted into another tube of 9 ml 7H9 to yield a 10^−4 solution. This process was repeated again to produce a 10^−5 solution. The serial dilutions were plated on HEYM flasks, 100 ul dilution per flask, and placed in an incubator.
(§2) Cultures were set up in MGIT™ tubes (BD Diagnostics, Sparks, Md.). MGIT™ tubes contain an oxygen-sensitive fluorescent compound, tris 4,7-diphenyl-1,10-phenanthroline ruthenium chloride pentahydrate, in silicone base that detects growth by increased fluorescence as oxygen consumption in the culture increases. The tubes were barcoded for scanning in a BACTEC™ MGIT™ 960 machine (BD Diagnostics, Sparks, Md.).
(§3) Vials of nisin and ANV, stored in a standard freezer, were thawed in a 37° C. incubator. Egg yolk, OADC or OACC (BD Diagnostics, Sparks, Md.) and 7H9, stored in a standard refrigerator, were warmed in a 37° C. incubator. Using sterile pipet tips (autoclaved), components were aliquoted into barcoded MGIT™ culture tubes as follows: OADC or OACC (800 μl); 50% egg yolk suspension (600 μl except for […] control tubes having 60 μl. The volume difference in volume made up by 7H9); 7H9; 5 mg/ml ANV (30 μl); 100 mg/ml nisin (quantity determined by desired final concentration); and organism sample (100 μl). 7H9 was added at the quantity needed to bring the final volume of each tube to 8.9 ml, so that the tubes had identical head space. After all components were added, tubes were tightly capped and inverted three times. The tubes were placed in the MGIT™ 960 machine and scanned in after they registered as unknown at the next hourly reading.
(§4) The experiment was designed to test a MAP isolate (ATCC# 700535) at three different concentrations (MAP 10^−3, MAP 10^−4 and MAP 10^−5). Three field samples (processed fecal matter) named Annabelle, Heidi and Meck 42 were also tested in the experiment. Seven conditions were tested for effectiveness against bacterial contamination in mycobacterial cultures: ANV alone, five different nisin concentrations and HCl, the diluent for nisin. Generally, each sample was tested in triplicate for each solution. There were eleven additional control tubes; two tubes for additives (5 μl nisin and 30 μl ANV) and 9 tubes for weekly performance (no ANV and 60 μl 50% egg yolk suspension; WP). The WP tubes were used to monitor test performance and reproducibility over time.

Series [1] has as its system bacterial contamination and MAP in processed fecal field samples (Annabelle, Heidi, Meck 42). Briefly: MGIT 960 liquid culture of processed fecal field samples, time to positive / contamination. The format is cell-based, Mycobacterium avium subsp. paratuberculosis. As to conditions: for TTP (days): 50000 ug nisin per tube, 1 tube only. The protocol: as §1
Vials of processed fecal field samples, Annabelle, Heide and Meck 42, stored at −70° C., were thawed in a 37° C. incubator. The samples had been previously processed according to the Cornell modified decontamination and inoculation method as described in Whitlock et al., supra (2000).
as §2, §3, §4

The subject of the next series is Acid Fast bacillus. Briefly: Acid fast smears (Ziehl-Neelson) of culture tubes. The format is cell-based, Mycobacterium avium subsp. paratuberculosis. As to conditions: for Acid Fast Results or CFUs: per replicate tube. The text has this: One of the most distinctive properties of Mycobacteria is the impermeability of their lipid-rich cell walls to various basic dyes, unless the dye is combined with phenol. Once stained, the cells resist decolorization with acidified organic solvents, and are, therefore called “acid fast.” Acid fast staining methods include, but are not limited to, Ziehl-Neelsen (ZN) carbolfuchsin staining, fluorochrome staining (auromine O and rhodamine B) and Kinyoun carbolfuchsin staining.

The mark [2] stands for this setting: Meck and Annabelle samples, tubes 4F and 7F (10000 ug nisin).

Where no end group is shown, it is not given here. A value given as a limit tells only on which side of the number the result lay.

On to “A19C Pep5: Pep5 variant from the literature (TAGPAIRASVKQCQKTLKCTRLFTVSCKGKNGCK; also: lantibiotic Pep5: thioether rings and dehydro residues not placed; UniProt P19578 27-60, looked up, variant A19C)”, for which the stability to chymotrypsin result in the series with chymotrypsin was “more stable to chymotrypsin”.
For “L6V gallidermin: gallidermin variant from the literature (IASKFVCTPGCAKTGSFNSYCC; cysteine pairing not given here; also: lantibiotic lanthionine modifications not placed; UniProt P21838 31-52, looked up, variant L6V)”, the antibacterial activity result with at least some strains is “enhanced antibacterial activity”.
Regarding “nisin (ITSISLCTPGCKTGALMGCNMKTATCHCSIHVSK; cysteine pairing not given here; also: lantibiotic lanthionine modifications not placed; UniProt P13068 24-57, looked up) [34 amino acid pentacyclic class A lantibiotic peptide produced by Lactococcus lactis; stock 100 mg/ml in HCl]”, the “TTP (days)” value in the series on MAP ATCC# 700535 (MAP 10^−4, 500 ug nisin per tube, three replicate tubes) is reported as 19.3–20.6–No gu's; in the series with MAP ATCC# 700535 (MAP 10^−4, 50000 ug nisin per tube) it was “No gu's”; in the series on MAP ATCC# 700535 (MAP 10^−5, 5000 ug nisin per tube, three replicate tubes), 32.4–38.7–2 gu's; in series [1] (Annabelle field sample) it was 43.7 (1 tube only) days; in series [1] (Heidi field sample) it was “No gu's (1 tube only)”; in series [1] (Meck 42 field sample), 54.4 (1 tube only) days. In addition, in the series with MAP ATCC# 700535 (nisin at 10,000 ug/tube, tubes 3A and 3F (MAP 10^−5)), the “reduction of TTP compared to 30 ul ANV” value is “approximately 30%”. Further, the “inhibitory effect on MAP growth” value with MAP ATCC# 700535 (nisin with 600 ul EY) was “little inhibitory effect on MAP growth”. Further, in series [1] (600 ul 50% egg yolk suspension, nisin approximately 5000 to 10,000 ug per tube), the “time to recover TNTC animals” value is below 15 days. The “time at which tubes flagged positive” value in series [1] (setting [2]) was 14 to 17 days. The “control of non-mycobacterial contamination and MAP growth” value in series [1] (field samples, particularly at 10,000 ug nisin) is listed as “controlled non-mycobacterial contamination with little retardation of MAP growth”. The “Acid Fast Results or CFUs” value was 4+Pos–4+Pos–ND with Acid Fast bacillus (Annabelle field sample, 10000 ug nisin per tube); 4+Pos–4+Pos–ND with Acid Fast bacillus (Heidi field sample, 500 ug nisin per tube); 4+Pos–4+Pos–ND in the series on Acid Fast bacillus (Heidi field sample, 1000 ug nisin per tube); 4+Pos–3+Pos–ND with Acid Fast bacillus (Heidi field sample, 5000 ug nisin per tube); 4+Pos–ND–ND in the series with Acid Fast bacillus (Heidi field sample, 10000 ug nisin per tube); 4+Pos–4+Pos–ND with Acid Fast bacillus (MAP 10^−3, 10000 ug nisin per tube). For the same substance, the “Acid Fast Results or CFUs” value was “ND–ND–4+Pos” with Acid Fast bacillus (Meck 42 field sample, 1000 ug nisin per tube); “BC–4+Pos–4+Pos” in the series on Acid Fast bacillus (Meck 42 field sample, 5000 ug nisin per tube); “ND–4+Pos–4+Pos” in the series on Acid Fast bacillus (Meck 42 field sample, 10000 ug nisin per tube). Further, in the series on Acid Fast bacillus (setting [2]), the “AFB (acid-fast bacilli smears)” value is given as 4+Positive.
